Common to all, as to type: biochemical
One assay has as its target IRE1β kinase (Homo sapiens (Human), UniProt Q76MJ5). Nature of the assay: IRE1β kinase IC50.
For another assay, the target named is IRE1α kinase (Homo sapiens (Human), UniProt O75460). The assay can be described thus: IRE1α kinase IC50.
The target in a further assay is IRE1α RNase (Homo sapiens (Human), UniProt O75460). The assay can be described thus: IRE1α RNase IC50.

These results are taken from patent US12391669B2, “Substituted pyrimidines as IRE1 kinase inhibitors” (THE REGENTS OF THE UNIVERSITY OF CALIFORNIA, priority 2018, dated 2025).

Where two headings read alike, the source gives them in different places.

Usually IC50 stands for the point on the concentration scale where inhibition reaches its midpoint. A higher IC50 goes with weaker potency in that assay.

IRE1β kinase, sequence (Q76MJ5 35-926): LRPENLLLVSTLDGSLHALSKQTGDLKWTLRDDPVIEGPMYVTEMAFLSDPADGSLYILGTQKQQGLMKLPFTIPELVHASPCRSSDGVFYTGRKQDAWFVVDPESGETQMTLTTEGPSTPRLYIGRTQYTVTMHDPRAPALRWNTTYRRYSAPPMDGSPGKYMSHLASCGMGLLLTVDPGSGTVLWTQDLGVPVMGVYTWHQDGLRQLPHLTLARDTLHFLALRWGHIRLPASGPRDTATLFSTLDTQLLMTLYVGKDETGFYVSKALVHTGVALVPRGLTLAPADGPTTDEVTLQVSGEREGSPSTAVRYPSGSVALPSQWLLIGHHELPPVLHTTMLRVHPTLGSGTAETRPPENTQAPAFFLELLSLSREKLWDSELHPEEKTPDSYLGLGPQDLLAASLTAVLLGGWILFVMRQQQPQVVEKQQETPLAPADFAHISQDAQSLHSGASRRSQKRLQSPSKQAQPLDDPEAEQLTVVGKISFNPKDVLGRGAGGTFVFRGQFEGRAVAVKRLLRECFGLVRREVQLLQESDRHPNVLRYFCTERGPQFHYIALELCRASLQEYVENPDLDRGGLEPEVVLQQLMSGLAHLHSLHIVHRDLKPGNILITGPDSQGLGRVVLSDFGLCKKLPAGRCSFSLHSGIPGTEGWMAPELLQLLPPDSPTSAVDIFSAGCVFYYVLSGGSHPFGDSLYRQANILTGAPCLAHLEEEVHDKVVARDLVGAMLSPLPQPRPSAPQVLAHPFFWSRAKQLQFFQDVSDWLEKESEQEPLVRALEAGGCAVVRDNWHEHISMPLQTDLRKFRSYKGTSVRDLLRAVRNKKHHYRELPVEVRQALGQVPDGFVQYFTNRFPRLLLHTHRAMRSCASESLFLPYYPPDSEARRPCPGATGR
IRE1α kinase, sequence (O75460 19-977): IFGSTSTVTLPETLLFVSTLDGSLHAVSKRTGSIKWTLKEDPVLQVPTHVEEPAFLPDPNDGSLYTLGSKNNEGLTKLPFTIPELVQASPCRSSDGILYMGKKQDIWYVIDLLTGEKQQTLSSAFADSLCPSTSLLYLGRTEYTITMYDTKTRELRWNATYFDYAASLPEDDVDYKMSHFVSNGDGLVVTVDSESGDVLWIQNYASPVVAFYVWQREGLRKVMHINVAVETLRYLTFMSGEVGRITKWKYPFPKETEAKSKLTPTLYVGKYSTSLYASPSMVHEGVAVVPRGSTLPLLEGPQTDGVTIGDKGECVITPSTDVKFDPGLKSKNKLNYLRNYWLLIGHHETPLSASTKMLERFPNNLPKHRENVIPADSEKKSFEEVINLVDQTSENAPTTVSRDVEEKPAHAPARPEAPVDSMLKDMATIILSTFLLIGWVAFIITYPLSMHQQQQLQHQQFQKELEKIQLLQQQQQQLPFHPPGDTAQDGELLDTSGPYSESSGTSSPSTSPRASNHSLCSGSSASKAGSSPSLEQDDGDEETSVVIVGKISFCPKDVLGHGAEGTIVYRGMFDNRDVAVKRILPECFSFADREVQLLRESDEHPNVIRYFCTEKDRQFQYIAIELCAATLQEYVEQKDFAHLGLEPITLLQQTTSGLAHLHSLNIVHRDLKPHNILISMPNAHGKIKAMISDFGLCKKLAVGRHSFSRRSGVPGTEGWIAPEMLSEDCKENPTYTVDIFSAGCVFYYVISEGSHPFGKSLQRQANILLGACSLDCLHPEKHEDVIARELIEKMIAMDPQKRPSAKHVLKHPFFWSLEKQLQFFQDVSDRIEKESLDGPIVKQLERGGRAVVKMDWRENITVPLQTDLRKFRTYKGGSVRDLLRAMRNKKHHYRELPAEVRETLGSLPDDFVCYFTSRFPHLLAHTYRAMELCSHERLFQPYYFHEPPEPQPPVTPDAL
IRE1α RNase, sequence (O75460 19-977): as above

For the compound `Cc1ccc2c(NS(=O)(=O)c3ccccc3Cl)cccc2c1Oc1nccnc1-c1ccnc(N[C@H]2CCCNC2)n1` [compound 96], the IC50 against IRE1β kinase came out at 120 nM; against IRE1α kinase, 98 nM; against IRE1α RNase ((HF)), 117 nM.
Compound `Cc1cc(NS(=O)(=O)c2ccccc2Cl)ccc1Oc1ncsc1-c1ccnc(N[C@H]2CCCNC2)n1` [compound 39] displayed an IC50 on IRE1α kinase ((HF)) of 1140 nM.
Consider `Cc1nc(Oc2ccc(NS(=O)(=O)c3ccccc3Cl)c3ccccc23)c(-c2ccnc(N[C@H]3CCCNC3)n2)s1` [compound 67, (S)-2-chloro-N-(4-(2-methyl-5-(2-(piperidin-3-ylamino)pyrimidin-4-yl)thiazol-4-yloxy)naphthalen-1-yl)benzenesulfonamide], for which the half-inhibitory concentration (IC50) at IRE1α kinase ((HF)) was 63 nM; against IRE1α RNase ((HF)), 19 nM.
Regarding `O=S(=O)(Nc1cccc2c(Oc3ncsc3-c3ccnc(N[C@H]4CCCNC4)n3)cccc12)c1ccccc1Cl` [compound 47, (S)-2-chloro-N-(5-(5-(2-(piperidin-3-ylamino)pyrimidin-4-yl)thiazol-4-yloxy)naphthalen-1-yl)benzenesulfonamide], the IC50 at IRE1β kinase amounted to 181 nM; against IRE1α kinase, 10 nM; on IRE1α RNase ((HF)) it was 8.3 nM.
For `O=S(=O)(NCc1cccc(Oc2ncsc2-c2ccnc(N[C@H]3CCCNC3)n2)c1)c1ccccc1Cl` [compound 43, (S)-2-chloro-N-(3-(5-(2-(piperidin-3-ylamino)pyrimidin-4-yl)thiazol-4-yloxy)benzyl)benzenesulfonamide], it took 1600 nM to reach half-maximal inhibition against IRE1α kinase ((HF)) (IC50).
As for `c1ccc2[nH]c(Cc3ccc(Oc4ncsc4-c4ccnc(N[C@H]5CCCNC5)n4)cc3)nc2c1` [compound 30, (S)-4-(4-(4-((1H-benzo[d]imidazol-2-yl)methyl)phenoxy)thiazol-5-yl)-N-(piperidin-3-yl)pyrimidin-2-amine], the IC50 against IRE1β kinase came out at 8400 nM; against IRE1α kinase it was 439 nM; against IRE1α RNase it was 118 nM.
Regarding `O=S(=O)(Cc1ccccc1Cl)Nc1ccc(Oc2nccnc2-c2ccnc(N[C@H]3CCCNC3)n2)cc1F` [compound 73, (S)-1-(2-chlorophenyl)-N-(2-fluoro-4-(3-(2-(piperidin-3-ylamino)pyrimidin-4-yl)pyrazin-2-yloxy)phenyl) methane sulfonamide], the IC50 on IRE1β kinase stood at 1570 nM; at IRE1α kinase, 961 nM.
As for `O=S(=O)(Nc1ccc(Oc2nccnc2-c2ccnc(N[C@H]3CCCNC3)n2)c2ccccc12)c1ccccc1Cl` [compound 84, (S)-2-chloro-N-(4-(3-(2-(piperidin-3-ylamino)pyrimidin-4-yl)pyrazin-2-yloxy)naphthalen-1-yl)benzenesulfonamide], the IC50 worked out at 1980 nM against IRE1β kinase and 296 nM on IRE1α kinase.
For `c1ccc2[nH]c(Cc3ccc(Oc4nccnc4-c4ccnc(N[C@H]5CCCNC5)n4)cc3)nc2c1` [compound 88, (S)-4-(3-(4-((1H-benzo[d]imidazol-2-yl)methyl)phenoxy)pyrazin-2-yl)-N-(piperidin-3-yl)pyrimidin-2-amine], the half-inhibitory concentration (IC50) against IRE1β kinase is greater than 10000 nM; at IRE1α kinase, 7300 nM.
As for `Cc1ccc(C(=O)Nc2ccccc2Cl)cc1Oc1ncsc1-c1ccnc(N[C@H]2CCCNC2)n1` [compound 16, (S)—N-(2-chlorophenyl)-4-methyl-3-(5-(2-(piperidin-3-ylamino)pyrimidin-4-yl)thiazol-4-yloxy)benzamide], the IC50 against IRE1β kinase was greater than 10000 nM; at IRE1α kinase ((HF)) it was 307 nM; on IRE1α kinase ((RB)) it was 228 nM.
Compound `O=C(NCc1ccccc1Cl)c1cccc(Oc2ncsc2-c2ccnc(N[C@H]3CCCNC3)n2)c1` [compound 51, (S)—N-(2-chlorobenzyl)-3-(5-(2-(piperidin-3-ylamino)pyrimidin-4-yl)thiazol-4-yloxy)benzamide] gave an IC50 against IRE1α kinase ((HF)) of 524 nM.
Regarding `c1cc(Cc2nc3ccccc3[nH]2)cc(Oc2ncsc2-c2ccnc(N[C@H]3CCCNC3)n2)c1` [compound 35, (S)-4-(4-(3-((1H-benzo[d]imidazol-2-yl)methyl)phenoxy)thiazol-5-yl)-N-(piperidin-3-yl)pyrimidin-2-amine], on IRE1α RNase ((HF)), the midpoint of inhibition, the IC50, lay at 153 nM.
Regarding `Cc1ccc(C(=O)N(C)Cc2ccccc2Cl)cc1Oc1ncsc1-c1ccnc(N[C@H]2CCCNC2)n1` [compound 55, (S)—N-(2-chlorobenzyl)-N,4-dimethyl-3-(5-(2-(piperidin-3-ylamino)pyrimidin-4-yl)thiazol-4-yloxy)benzamide], the IC50 against IRE1α kinase ((HF)) was 3180 nM.
Turning to `O=S(=O)(Nc1ccc(Oc2nccnc2-c2ccnc(N[C@H]3CCCNC3)n2)cc1F)c1ccccc1Cl` [compound 77, (S)-2-chloro-N-(2-fluoro-4-(3-(2-(piperidin-3-ylamino)pyrimidin-4-yl)pyrazin-2-yloxy)phenyl)benzenesulfonamide], the half-inhibitory concentration (IC50) on IRE1β kinase was 2100 nM; against IRE1α kinase, 6200 nM.
Turning to `Cc1ccc(C(=O)NCc2ccccc2Cl)cc1Oc1ncsc1-c1ccnc(N[C@H]2CCCNC2)n1` [compound 20, (S)—N-(2-chlorobenzyl)-4-methyl-3-(5-(2-(piperidin-3-ylamino)pyrimidin-4-yl)thiazol-4-yloxy) benzamide], on IRE1α kinase ((HF)), the IC50 came out at 55 nM. Also, the “IRE1α RNase IC50” value at IRE1α RNase (result in words, pIRE1α) is reported as “No inhibition of pIRE1α”.
`O=S(=O)(Cc1ccccc1Cl)Nc1ccc(Oc2ncsc2-c2ccnc(N[C@H]3CCCNC3)n2)cc1F` [compound 11, (S)-1-(2-chlorophenyl)-N-(2-fluoro-4-(5-(2-(piperidin-3-ylamino)pyrimidin-4-yl)thiazol-4-yloxy)phenyl)methane sulfonamide]: the IC50 is 119 nM on IRE1α kinase ((HF)) and 24 nM against IRE1α RNase ((HF)).
Take `O=S(=O)(Nc1ccc(Oc2ncsc2-c2ccnc(N[C@H]3CCCNC3)n2)cc1F)c1ccccc1Cl` [compound 25]: the 50% inhibitory concentration (IC50) at IRE1β kinase came out at 32 nM; on IRE1α kinase, 117 nM; against IRE1α RNase ((HF)), 46 nM.
